Read-outs that look alike come from different tables or passages of the source.
Assays:
[1] = tested on: HepG2 cells; test: Staurosporin-induced apoptosis in HepG2 cells (caspase 3/7 activity, Caspase Glo); type: cell-based, human; details: 16 h pre-treatment, then 10 μM staurosporin 4 h; for inhibition at 0.3 µM: Homo sapiens, HepG2, 0.3 μM, read-out: % Inhibition of caspase activity over mean Veh.
Method: In order to evaluate the effect of the compounds on human hepatocytes that undergo a cellular stress induced by staurosporin, the human hepatoblastoma-derived HepG2 cell line (ECACC, #85011430, Sigma-Aldrich) was cultured in high-glucose DMEM medium (#41965, Gibco, France) supplemented with 10% of fetal bovine serum (FBS, #10270, Gibco), 1% penicillin/streptomycin (#15140, Gibco), 1% sodium pyruvate (#11360, Gibco) and 1% MEM non-essential amino acids (#11140, Gibco) in a 5% CO2 incubator at 37° C.
To evaluate caspase 3/7 activity, which is a surrogate marker of apoptosis, 1.5×10^4 cells were plated in a 384-well plate (#781080, Greiner, France). After cell adherence (8 hours), cells were serum starved for 16 h in the presence of 0.3 μM of compounds or vehicle. Cpd.1 was also used at 3 and 10 μM. Thereafter, cells were treated with 10 μM staurosporin (#569397, Sigma-Aldrich, Germany) supplemented with compound for additional 4 hours before cell lysis and caspase activity measurement.
Caspase 3/7 activity was measured using Caspase Glow™ 3/7 assay (#G8093, Promega, USA). Luminescence was measured using a Spark microplate reader (#30086376, Tecan, USA). The amount of luminescence (RLU) directly correlates with caspase 3/7 activity.

[2] = tested on: THP1 macrophages; test: Macrophage activation: MCP1 and TNFα secretion induced by LPS from Klebsiella in THP1 macrophages (HTRF); type: cell-based, human; details: 24 h, then LPS Klebsiella 6 h; for inhibition at 10 µM / inhibition at 1 µM: Homo sapiens; for inhibition at 10 µM: THP-1, 10 μM; for inhibition at 1 µM: THP-1, 1 μM
Method: (§1) In order to test the efficacy of the compounds on macrophage activation and pro-inflammatory cytokine production, 2.5×10^4 THP-1 cells were cultured in a 384-well plate and treated with 100 ng/mL PMA (#P8139, Sigma) for 24 h to induce differentiation into macrophages.
Then, medium was removed and FBS-deprived medium containing 1 or 10 μM compound was added for 24 h. Finally, THP1 macrophages were stimulated for 6 h with 100 ng/mL LPS (Klebsiella pneumoniae, #L4268, Sigma-Aldrich).
Monocyte chemoattractant protein 1 (MCP1) and […] (TNFα) were measured in cell supernatants by Homogeneous Time Resolved Fluorescence (HTRF, #62[…] for TNFα, and 62HCCL2PEG for MCP1, Cisbio). Fluorescence was measured with Infinite 500 (#30019337, Tecan) to determine the concentration of cytokines.

[3] = tested on: THP1 differentiated macrophages; test: Macrophage activation: cytokine production by THP1 differentiated macrophages stimulated with LPS (E. coli O55:B5); type: cell-based, human; details: compound 24 h, then 100 ng/mL LPS E. coli 6 h
Method: as §1
Then, medium was removed and FBS-deprived medium containing the compound of formula (I) was added for 24 h. Finally, THP1 macrophages were stimulated with 100 ng/mL LPS (E. coli O55:B5, #L4005, Sigma) for 6 h.

[4] = tested on: LPS-induced endotoxemia; test: Preclinical model of endotoxemia: hepatic markers (total bilirubin, albumin) and TNFα in rat serum; type: in vivo, male Sprague Dawley rats; details: rats, 3 mg/kg/day oral gavage 3 days before LPS, blood 3 h after LPS
[5] = tested on: CLP induced polymicrobial sepsis; test: Cecal ligation and puncture (CLP) model of polymicrobial sepsis: survival; type: in vivo, C57BL6J male mice; details: mice, 0.3 mg/kg p.o.
Method: This study aims to investigate the efficacy of Cpd.1 in cecal ligation and puncture (CLP) model in C57BL6J (BL6) male mice. The efficacy of the test compound was evaluated based on the survival rate of the animals within the study period.
C57BL6J male mice (supplier Janvier—France) at 9 weeks of age and weighing 23-25 g on arrival were anesthetized with 250 μL of xylazine/ketamine solution (20 mg/100 g body weight) by intraperitoneal route. A 1-1.5 cm abdominal midline incision was made, and the caecum was located and tightly ligated at half the distance between distal pole and the base of the cecum with 4-0 silk suture (mild grade). The caecum was punctured through-and-through once with a 21-gauge needle from mesenteric toward antimesenteric direction after medium ligation. A small amount of stool was extruded to ensure that the wounds were patent. Then the cecum was replaced in its original position within the abdomen, which was closed with sutures and wound clips. Mice were followed for body weight evolution and mortality rate until Day 6.
Cpd.1 or vehicle (Labrafil M 1944 CS, #3063, Gattefossé) was administrated at 0.3 mg/kg, p.o. for three days before CLP surgery. The day of CLP (day 0), Cpd.1 was administrated 1 h before surgery and pursued daily until day 6. Experiment was terminated at day 7.
Two groups of C57BL6J mice at the age of 9 weeks were treated as described above. • 1. […]

[6] = read-out: % inhibition of MCP1 secretion over mean Veh.
[7] = read-out: % inhibition of TNFα secretion over mean Veh.

Compound | inhibition at 0.3 µM [1] | inhibition at 10 µM [2, 6] | inhibition at 10 µM [2, 7] | also measured
Cc1cc(CCC(O)c2ccc(OC(F)(F)F)cc2)cc(C)c1OC(C)(C)C(=O)O (stereo not drawn) [Cpd. 6, 2-(4-(3-hydroxy-3-(4-(trifluoromethoxy)phenyl)propyl)-2,6-dimethylphenoxy)-2-methylpropanoic acid] | 43% | 103% | – | –
CN(CCOc1ccc(CC2SC(=O)NC2=O)cc1)c1ccccn1 (stereo not drawn) [Cpd. 22, rosiglitazone, reference compound] | – | – | – | % inhibition of MCP1 secretion over mean Veh. ([2]; 1 μM): 79%; % inhibition of TNFα secretion over mean Veh. ([2]; 1 μM): 36%; % inhibition of MCP1 secretion over mean Veh. ([2]; 10 μM): 117%; % inhibition of TNFα secretion over mean Veh. ([2]; 10 μM): 11%
CC[C@@H](Oc1cccc(CN(CCCOc2ccc(OC)cc2)c2nc3ccccc3o2)c1)C(=O)O [Cpd. 18, pemafibrate, reference compound] | – | 123% | – | –
Cc1cc(CCC(=O)c2ccc(C(F)(F)F)cc2)cc(C)c1OC(C)(C)C(=O)O [Cpd. 3, 2-[2,6-dimethyl-4-[3-[4-(trifluoromethyl)phenyl]-3-oxo-propyl]phenoxy]-2-methylpropanoic acid] | – | 107% | 20% | –
O=C(O)CCCc1cc2cc(Cl)ccc2n1S(=O)(=O)c1ccc2ncsc2c1 [Cpd. 23, lanifibranor, reference compound] | – | 126% | 32% | –
Cc1cc(CCC(=O)c2ccc(OC(F)(F)F)cc2)cc(C)c1OC(C)(C)C(=O)O [Cpd. 2, 2-[2,6-dimethyl-4-[3-[4-(trifluoromethyloxy)phenyl]-3-oxo-propyl]phenoxy]-2-methylpropanoic acid] | 70% | 106% | – | –
COC(CCc1cc(C)c(OC(C)(C)C(=O)O)c(C)c1)c1ccc(OC(F)(F)F)cc1 (stereo not drawn) [Cpd. 1, 2-[4-(3-methoxy-3-(4-(trifluoromethoxy)phenyl)propyl)-2,6-dimethylphenoxy]-2-methylpropanoic acid] | – | – | – | reduction of staurosporin-induced caspase activity, dose dependence ([1]; 0.3, 3 and 10 μM): reduced caspase activity induced by staurosporin in a dose-dependent manner; reduction of TNFα secretion [3]: potent at reducing TNFα; reduction of MCP1 secretion ([3]; all doses tested): overpassing the untreated condition for MCP1 secretion at all doses tested; serum total bilirubin level compared to the vehicle condition [4]: completely restored the level of total bilirubin; side effect recorded after each administration [5]: No side effect
COC(CCc1cc(C)c(OC(C)(C)C(=O)O)c(C)c1)c1ccc(Br)cc1 (stereo not drawn) [Cpd. 14, 2-[2,6-dimethyl-4-[3-[4-bromophenyl]-3-methoxypropyl]phenoxy]-2-methylpropanoic acid] | 77% | 107% | 28% | –
CCc1ccc(CCOc2ccc(CC3SC(=O)NC3=O)cc2)nc1 (stereo not drawn) [Cpd. 21, pioglitazone, reference compound] | 60% | 121% | 19% | –
CCOC(CCc1ccc(OC(C)(C)C(=O)O)c(Cl)c1Cl)c1sc(-c2ccc(C(F)(F)F)cc2)nc1C (stereo not drawn) [Cpd. 9, 2-(2,3-dichloro-4-(3-ethoxy-3-(4-methyl-2-(4-(trifluoromethyl)-phenyl)thiazol-5-yl)propyl)phenoxy)-2-methylpropanoic acid] | – | 127% | 77% | –
CSc1ccc(C(CCc2cc(C)c(OC(C)(C)C(=O)O)c(C)c2)OC(C)C)cc1 (stereo not drawn) [Cpd. 5, 2-[2,6-dimethyl-4-[3-[4-(methylthio)phenyl]-3-isopropyloxypropyl]phenoxy]-2-methylpropanoic acid] | – | 110% | – | –
COC(CCc1cc(C)c(OC(C)(C)C(=O)O)c(C)c1)c1ccc(SC)cc1 (stereo not drawn) [Cpd. 13, 2-[2,6-dimethyl-4-[3-[4-(methylthio)phenyl]-3-methoxypropyl]phenoxy]-2-methylpropanoic acid] | – | 111% | 18% | % Inhibition of caspase activity over mean Veh. ([1]; 0.3 μM): 79%; inhibition at 1 µM [2, 6]: 99%; inhibition at 1 µM [2, 7]: 0%
CON=C(CCc1cc(C)c(OC(C)(C)C(=O)O)c(C)c1)c1ccc(OC(F)(F)F)cc1 [Cpd. 7, 2-(4-(3-(methoxyimino)-3-(4-(trifluoromethoxy)phenyl)propyl)-2,6-dimethylphenoxy)-2-methylpropanoic acid] | 66% | 107% | 42% | –
CC(C)(Oc1ccc(CCNC(=O)c2ccc(Cl)cc2)cc1)C(=O)O [Cpd. 17, bezafibrate, reference compound] | – | 54% | – | –
